According to patent US20100120662A1, “Glucose uptake modulator and method for treating diabetes or diabetic complications” (POSTECH Foundation, priority 2005, published 2010):
Ends that are not written are not given here.

How the values were obtained:
[1] = test system: insulin receptor (IR); test: IR autophosphorylation in hIRcB cells; format: cell-based, human
Description: FIG. 12A shown a comparison of insulin sensitizing effect among CRF family which was obtained by incubating cells with 1 μM CRF family and/or 2 nM insulin or with medium alone for 1 min. […] FIG. 12B was obtained by incubating cells with 2 nM insulin and variant dose of UCN (from 2 nM to 1 μM) for 1 min. FIG. 12C was obtained by incubating cells 100 nM UCN and variant dose of insulin for 1 min. Phosphorlyation of IR was assessed by western blotting with anti-pTyr antibodies. FIG. 13D was obtained by incubating cells with 100 nM UCN and/or 10 nM insulin for 0, 2, 10, 30, and 60 min, and then assessing the phosphorlyation of IR by western blotting with anti-pIR antibodies. Quantization of IR autophosphorylation was measured with image gauge software (Fuji film). The values are the mean±S.E. for three experiments. *, P<0.05
hIRcB cells were maintained in DMEM, supplemented with 10% (v/v) FBS. The cells were grown at 37° C. in a humidified atmosphere of 5% CO2 and 95% air.
After treatment of ligands as indicated time and dose, the cells were washed with cold PBS and lysed with lysis buffer (50 mM HEPES pH 7.5, 150 mM NaCl, 1%
Triton X-100, 1 mM EDTA, 10% glycerol) containing protease inhibitors (0.5 mM PMSF, 1 μg/ml leupeptin and 5 μg/ml aprotinin) and phosphatase inhibitors (30 mM NaF, 1 mM Na3VO4 and 30 mM Na4O7P2). The cell lysates were incubated for 1 hr at 4° C. After centrifugation (14,000×g for 15 min), equal amounts of soluble extract were incubated, for 4 hrs, with 5 μg of anti-IR antibody and 30 μl of resin volume of immobilized protein A. For gel electrophoresis, the precipitates were dissolved in Laemmli sample buffer. The sample was separated by SDS-PAGE and transferred to a nitrocellulose membrane (Schleicher and Schuell, BA85). Blocking was performed with TTBS buffer (10 mM Tris/HCl, pH 7.5, 150 mM NaCl, and 0.05% Tween 20) containing 5% skimmed milk powder. The membrane was probed with primary for 3 hrs at room temperature. Subsequently the immunoblot was washed and incubated with horseradish peroxidase-linked secondary antibody for 1 hr at room temperature, rinsed four times in TTBS buffer, and developed with horseradish peroxidase-dependent chemiluminescence reagents (Amersham International, United Kingdom).

[2] = test system: C2C12 myotubules; test: Glucose uptake in C2C12 myotubules (UCN); format: cell-based; settings: in the presence of UCN
Description: (§1) UCN enhanced insulin-induced glucose uptake and phosphorylation of IR, IRS and Akt. Myotubules were incubated with 2 nM UCN and/or variant insulin dose (0-50 nm) for 1 min (Inserted immunoblot data). Phosphorylation of IRS and Akt was assessed by western blot analysis with anti-pIRS and anti-pAkt antibodies. Glucose uptake was determined as below.
(§2) C2C12 cells were maintained in DMEM, supplemented with 10% (v/v) FBS. The cells were grown at 37° C. in a humidified atmosphere of 5% CO2 and 95% air. For the differentiation of C2C12 cells, growing media was changed to DMEM, supplemented with 2% (v/v) ES and cultured for 7 days.
After differentiation, cells were washed and incubated during 3 hrs with 2 ml Krebs-Ringer phosphate (KRP) containing 130 mM NaCl, 5 mM KCl, 1.3 mM CaCl2.2H2O, 1.3 mM MgSO4.7H2O, and 10 mM Na2HPO4.7H2O, pH 7.4. To determine the effect of UCN on glucose uptake, 10 min incubation in 1 ml of KRP at indicated conditions was carried out. The reaction was performed by adding a mixture of [^14C] 2-DG (1 μCi/ml) and non-radioactive 2-DG (final concentration of 20 mM) for 10 min. […] Cell-associated radioactivity was determined by lysing the cells in 1 N NaOH and followed by scintillation counting. Non-specific uptake was measured by incubating the cells with cytochalasin B (20 μM/ml). […]

[3] = test system: IR, IRS and Akt; test: Phosphorylation of IR, IRS and Akt in C2C12 myotubules; format: cell-based
Description: as §1, §2
Immunoprecipitation and immunoblot was performed according to the method of EXAMPLE 8.

[4] = test system: ICR mice; test: Blood glucose in normal ICR mice after intravenous UCN; format: in vivo, mouse; settings: i.v.
Description: (§3) The inserted immunoblot data is about IR phosphorylation by UCN in skeletal muscle. Mice were injected (intravenously) with either vehicle (0.1% BSA in saline) or UCN (0.1-100 μM). Values are the mean±S.D. for four control and four UCN-treated mice. […] The inserted immunoblot data was about IR phosphorylation by treatment of UCN in skeletal muscle of STZ mouse. Mice were injected (intravenously) with vehicle (0.1% BSA in saline), UCN (0.1 μM) and/or insulin (1 nM). And plasma levels of glucose were measured during 45 min. Values are the mean±S.D. for six mice each group. *, P<0.05.
For prepare the normal test animal, male Institute of Cancer Research (ICR) mice weighing 20-25 g, aged 8 weeks, were obtained from the Hyochang Science were housed four to cage in a temperature- and light-controlled room (20-22° C.; 12-hrs light, 12-hrs dark cycle; lights on at 07:00 hr) and were provided with regular diet chow and water ad libitum. The laboratory procedures used conformed to the guidelines of the Korea Government Guide for the Care of Use of Laboratory Animals. In the in vivo study, after fasting overnight, mice were injected to intravenous vein with 0.1% BSA saline or UCN, then plasma glucose was measured on a time by glucose analyzer (model AGM-2100, allmedicus Inc., anyang, Korea)

[5] = test system: STZ-mouse; test: Blood glucose in STZ mice after intravenous UCN and/or insulin; format: in vivo
Description: as §3
For preparing STZ-mouse, male Institute of Cancer Research (ICR) mice weighing 20-25 g, aged 8 weeks, were obtained from the Hyochang Science. STZ-induced diabetic mice were prepared by administering an intraperineal injection of STZ (Sigma Chemical, St. Louis, Mo.) (75 mg/kg) to male ICR mice after the animals were fasted for 1 day. And the next day had one more injection of STZ. Mice with plasma glucose concentrations ≧280 mg/dl were considered to have type 1 diabetes. All tests were carried out 3 days after the injection of STZ.

[6] = test system: insulin receptor (IR); test: IR phosphorylation in mouse skeletal muscle; format: in vivo; settings: soleus muscle, 15 min after i.v. injection
Description: After fasting overnight, mice were injected iv with agonist. After 15 min, mice were killed by soleus muscles were rapidly excised and were immediately frozen in liquid nitrogen. Lysates were prepared by homogenizing the tissues in lysis buffer (50 mM HEPES pH 7.5, 150 mM NaCl, 1% Triton X-100, 1 mM EDTA, 10% glycerol) containing protease inhibitors (0.5 mM PMSF, 1 μg/ml leupeptin and 5 μg/ml aprotinin) and phosphatase inhibitors (30 mM NaF, 1 mM Na3VO4 and 30 mM Na4O7P2). Debris was removed by centrifugation at 14,000 rpm for 10 min at 4° C. Immunoprecipitation and Western blots were performed as previously described.

## urocortin (DNPSLSIDLTFHLLRTLLELARTQSQRERAEQNRIIFDSV; ends and bridges not checked; UniProt P55089 83-122, looked up) [UCN, a 40 amino acid peptide as a member of the corticotrophin release factor (CRF) family]
[1]; 1 μM CRF family peptide with 2 nM insulin, 1 min, hIRcB cells
  insulin-mediated IR phosphorylation: potentate insulin-mediated IR phosphorylation
[1]; UCN 2 nM to 1 μM with 2 nM insulin, 100 nM UCN with 10 nM insulin 0-60 min
  dose and time dependence of insulin sensitizing effect: increased in dose (12B,12C) and time (12D) dependent manner
[1]; hIRcB cells
  potency in potentiating insulin-mediated IR phosphorylation compared with CRF: more potent
[1]; without insulin, hIRcB cells
  IR phosphorylation by peptide alone: no effect on IR phosphorylation
[2]
  insulin-stimulated glucose uptake: significantly increased
[3]; 2 nM UCN and/or insulin 0-50 nm, 1 min
  insulin-induced phosphorylation of IR, IRS and Akt: enhanced
[3]; in the presence of UCN, C2C12 myotubules
  insulin-induced phosphorylation of IR: enhanced
[4]; 0.1 μM UCN
  blood glucose level, UCN alone: down-regulated the blood glucose level
[4]; from 100 pM up
  blood glucose level, UCN alone: enhanced blood glucose level
[5]; UCN (0.1 μM) i.v., 45 min
  change of blood glucose level, UCN alone: no effect on the change of blood glucose level
[5]; UCN co-injected with inactive concentration of insulin (1 nM)
  blood glucose level, UCN co-injected with insulin: significantly decreased
[6]
  insulin-induced IR phosphorylation in mouse skeletal muscle: significantly sensitized insulin-induced IR phosphorylation
